# Assay results reported in patent publication US12202808B2, “Substituted antivirals for treating coronavirus infection” (Erasmus University Medical Center Rotterdam, priority 2021, dated 2025).
# Like-named read-outs stand apart in the source and are kept apart here.
# Experiments:
# SARS-CoV-2 [1] = type: cell-based; details: bronchioalveolar organoid-derived cultures, 10 μM, MOI 0.1, 2-72 h p.i.
# SARS-CoV-2 [2] = type: cell-based; details: bronchiolar organoid-derived cultures, MOI 0.1, 2-72 h p.i., most pronounced at 72 h p.i.
# [3] = test system: Bronchiolar organoid-derived cultures; type: cell-based, human
compound,measurement,setting,value
CO[C@H]1CN(C)C(=O)c2cc(NC(=O)NC(C)C)ccc2OC[C@H](C)N(Cc2ccc(-c3ccccn3)cc2)C[C@@H]1C [Bafcilin1],inhibition of SARS-CoV-2 replication,SARS-CoV-2 [1],inhibited SARS-CoV-2 replication
same,inhibition of SARS-CoV-2 replication as compared to the DMSO control,SARS-CoV-2 [2]; 1 μM,inhibited SARS-CoV-2 replication
same,inhibition of SARS-CoV-2 replication as compared to the DMSO control,SARS-CoV-2 [2]; 10 μM,inhibited SARS-CoV-2 replication
same,"GSEA (Enrichr, COVID-19 Related Gene Sets) of treatment affected genes","[3]; 1 μM, 10 μM and common between both treatments",significant enrichment of genes upregulated upon SARS-CoV-2 infection
same,number of genes affected (differentially expressed) as compared to DMSO,"[3]; 1 μM, 24 h treatment",653 genes
same,Enrichr analysis of genes downregulated by treatment,[3]; 10 μM,enriched for genes upregulated upon SARS-CoV-2 or SARS-CoV-1 infection
same,Enrichr analysis of genes upregulated by treatment,[3]; 10 μM,enriched for genes downregulated upon SARS-CoV-2 or MERS-CoV infection
same,number of genes differentially expressed in the same direction in both concentration groups,"[3]; common to 1 μM and 10 μM, 24 h treatment",437 genes
